The values that follow come from patent US4104389A, “Antiallergic pyrido[2,1-b]quinazolin-ones” (Warner-Lambert Company, priority 1977, dated 1978).

The test system of assay [1] is antibody-antigen reactions (PCA). As to the kind of experiment: PCA (rat), procedure of Herzig; reduction of allergic responses to antigen challenge. The format is in vivo. As to the method: When tested in accordance with the procedure of Herzig [Immunopharmacology, M. E. Rosenthale and H. C. Mansmann, Eds., John Wiley and Son, N.Y., 1975], these compounds as shown in Table I may be administered orally, parenterally, or by aerosol at a dose of 0.005-20mg/kg. Compounds of this invention are useful in the management of allergic reactions such as bronchial asthma.

The conditions of assay [2]: Netherlands Pat. No. 6,414,717; cited from earlier work.
The mark [3] stands for this setting: rat, iv., read-out: ED50 - PCA (rat) iv.

Like-named read-outs stand apart in the source and are kept apart here.

As for `O=C(O)c1ccc2nc3ccccc3c(=O)n2c1` [Example 1, 11-oxo-11H-pyrido[2,1-b]quinazoline-8-carboxylic acid], the “activity when given intravenously” value in assay [1] (intravenously) is recorded as “active”. Besides, the “activity when given orally” value in assay [1] (orally) is on record as “active”. Moreover, the ED50 (usually the midpoint of the dose-response relation) in assay [1] (rat, ip., read-out: ED50 - PCA (rat) ip.) amounted to 2 mg/kg; in assay [1] (setting [3]), 0.2 mg/kg; in assay [1] (rat, po., read-out: ED50 - PCA (rat) po.) it was 2 mg/kg.

Take `O=C(O)c1cccn2c(=O)c3ccccc3nc12` [Example 799]: the “activity compared with isomers of the invention” value in assay [1] (comparison in words, Table I) was “less active”. In assay [1] (rat, ip., 10mg/kg), the “PCA (rat) inhibition, ip.” value is given as 21%. Moreover, the “PCA (rat) activity, po., in words” value in assay [1] (rat, po., 10mg/kg) is “inactive”. In addition, the anti-inflammatory action entry in assay [2] is “possesses anti-inflammatory action”.

As for `O=C(O)c1cc(=O)c2c(OCC(O)COc3cccc4oc(C(=O)O)cc(=O)c34)cccc2o1` [Intal], the “ED50 - PCA (rat) ip., in words” value in assay [1] (rat, ip., dose not given) is given as “inact”. Further, the ED50 in assay [1] (setting [3]) is 1 to 2 mg/kg. Also, in assay [1] (rat, po., dose not given), the “ED50 - PCA (rat) po., in words” value was “inactive”.
